Assay results taken from the NIST ThermoML archive (doi:10.1021/acs.jced.5b00820).
Several values for one entry are separate records, joined by “and”; a condition that tells them apart may be missing. Equal values may be shown once. ± gives the expanded uncertainty stated by the source.

Key:
[1] = 102.2 kPa, Liquid, Vibrating tube method
[2] = refractive index (Na D-line) (dimensionless); conditions: 102.2 kPa, Liquid, Standard Abbe refractometry
[3] = refractive index (Na D-line) (dimensionless); xn = mol fraction of the nth substance listed; conditions: 102.2 kPa, Liquid, Standard Abbe refractometry, x2 = 0
[4] = xn = mol fraction of the nth substance listed; conditions: 102.2 kPa, Liquid, Vibrating tube method, x2 = 0

| Compound | mass density ([1]; 308.15 K) | mass density ([1]; 313.15 K) | mass density ([1]; 318.15 K) | mass density ([1]; 323.15 K) | mass density ([1]; 328.15 K) | refractive index ([2]; 308.15 K) | refractive index ([2]; 313.15 K) | refractive index ([2]; 318.15 K) | refractive index ([2]; 323.15 K) | refractive index ([2]; 328.15 K) | refractive index ([3]; 308.15 K) | refractive index ([3]; 313.15 K) | refractive index ([3]; 318.15 K) | refractive index ([3]; 323.15 K) | refractive index ([3]; 328.15 K) | mass density ([4]; 308.15 K) [kg/m3] | mass density ([4]; 313.15 K) [kg/m3] | mass density ([4]; 318.15 K) [kg/m3] | mass density ([4]; 323.15 K) [kg/m3] | mass density ([4]; 328.15 K) [kg/m3] |
| --- | --- | --- | --- | --- | --- | --- | --- | --- | --- | --- | --- | --- | --- | --- | --- | --- | --- | --- | --- | --- |
| C[Si](C)(O[Si](C)(C)c1ccccc1)c1ccccc1 [1,3-diphenyltetramethyldisiloxane] | 968.05 ± 0.21 kg/m3 and 967.99 ± 0.21 kg/m3 and 967.9 ± 0.21 kg/m3 | 963.92 ± 0.21 kg/m3 [middle of 4 runs] | 959.8 ± 0.21 kg/m3 [middle of 4 runs] | 955.69 ± 0.21 kg/m3 [middle of 4 runs] | 951.57 ± 0.21 kg/m3 and 951.58 ± 0.21 kg/m3 and 951.65 ± 0.21 kg/m3 | 1.51064 ± 0.00035 [middle of 4 runs] | 1.50832 ± 0.00035 [middle of 4 runs] | 1.50605 ± 0.00035 [middle of 4 runs] | 1.50377 ± 0.00035 [middle of 4 runs] | 1.50144 ± 0.00035 [middle of 4 runs] |  |  |  |  |  |  |  |  |  |  |
| C[Si]1(CCC(F)(F)F)O[Si](C)(CCC(F)(F)F)O[Si](C)(CCC(F)(F)F)O1 (stereo not given) | 1236.82 ± 0.23 kg/m3 | 1230.2 ± 0.23 kg/m3 | 1223.61 ± 0.23 kg/m3 | 1217.06 ± 0.23 kg/m3 | 1210.43 ± 0.23 kg/m3 | 1.36015 ± 0.00035 | 1.35814 ± 0.00035 | 1.35614 ± 0.00035 | 1.35413 ± 0.00035 | 1.35215 ± 0.00035 |  |  |  |  |  |  |  |  |  |  |
| C=C[Si](C)(C)O[Si](C)(C)C=C [1,3-diethenyl-1,1,3,3-tetramethyldisiloxane] | 797.99 ± 0.23 kg/m3 | 793.04 ± 0.23 kg/m3 | 788.05 ± 0.24 kg/m3 | 783.06 ± 0.24 kg/m3 | 778.04 ± 0.24 kg/m3 | 1.40445 ± 0.00036 | 1.40178 ± 0.00036 | 1.39912 ± 0.00036 | 1.39644 ± 0.00036 | 1.39378 ± 0.00036 |  |  |  |  |  |  |  |  |  |  |
| C=C[Si](C)(C)O[Si](C)(C)C=C [1,3-diethenyl-1,1,3,3-tetramethyldisiloxane] + C[Si](C)(O[Si](C)(C)c1ccccc1)c1ccccc1 |  |  |  |  |  |  |  |  |  |  | 1.40445 ± 0.00036 | 1.40178 ± 0.00036 | 1.39912 ± 0.00036 | 1.39644 ± 0.00036 | 1.39378 ± 0.00036 | 797.99 ± 0.23 | 793.04 ± 0.23 | 788.05 ± 0.24 | 783.06 ± 0.24 | 778.04 ± 0.24 |
| C=C[Si]1(C)O[Si](C)(C=C)O[Si](C)(C=C)O[Si](C)(C=C)O1 (stereo not given) [2,4,6,8-tetramethyl-2,4,6,8-tetravinylcycloterasiloxane] | 972.64 ± 0.21 kg/m3 | 967.49 ± 0.21 kg/m3 | 962.36 ± 0.21 kg/m3 | 957.2 ± 0.21 kg/m3 | 952.03 ± 0.21 kg/m3 | 1.42751 ± 0.00035 | 1.42514 ± 0.00035 | 1.42275 ± 0.00035 | 1.4204 ± 0.0004 | 1.41802 ± 0.00035 |  |  |  |  |  |  |  |  |  |  |

Next, values leading:

| mass density ([1]; 308.15 K) | mass density ([1]; 313.15 K) | mass density ([1]; 318.15 K) | mass density ([1]; 323.15 K) | mass density ([1]; 328.15 K) | refractive index ([2]; 308.15 K) | refractive index ([2]; 313.15 K) | refractive index ([2]; 318.15 K) | refractive index ([2]; 323.15 K) | refractive index ([2]; 328.15 K) | refractive index ([3]; 308.15 K) | refractive index ([3]; 313.15 K) | refractive index ([3]; 318.15 K) | refractive index ([3]; 323.15 K) | refractive index ([3]; 328.15 K) | mass density ([4]; 308.15 K) [kg/m3] | mass density ([4]; 313.15 K) [kg/m3] | mass density ([4]; 318.15 K) [kg/m3] | mass density ([4]; 323.15 K) [kg/m3] | mass density ([4]; 328.15 K) [kg/m3] | Compound |
| --- | --- | --- | --- | --- | --- | --- | --- | --- | --- | --- | --- | --- | --- | --- | --- | --- | --- | --- | --- | --- |
| 938.88 ± 0.22 kg/m3 | 933.06 ± 0.22 kg/m3 | 927.34 ± 0.22 kg/m3 | 921.59 ± 0.22 kg/m3 | 915.8 ± 0.22 kg/m3 | 1.38924 ± 0.00036 | 1.38671 ± 0.00036 | 1.38419 ± 0.00036 | 1.38168 ± 0.00036 | 1.37916 ± 0.00036 |  |  |  |  |  |  |  |  |  |  | C[Si]1(C)O[Si](C)(C)O[Si](C)(C)O[Si](C)(C)O1 [octamethylcyclotetrasiloxane] |
|  |  |  |  |  |  |  |  |  |  | 1.38924 ± 0.00036 | 1.38671 ± 0.00036 | 1.38419 ± 0.00036 | 1.38168 ± 0.00036 | 1.37916 ± 0.00036 | 938.88 ± 0.22 | 933.06 ± 0.22 | 927.34 ± 0.22 | 921.59 ± 0.22 | 915.8 ± 0.22 | C[Si]1(C)O[Si](C)(C)O[Si](C)(C)O[Si](C)(C)O1 [octamethylcyclotetrasiloxane] + C[Si](C)(O[Si](C)(C)c1ccccc1)c1ccccc1 |
|  |  |  |  |  |  |  |  |  |  | 1.36015 ± 0.00035 | 1.35814 ± 0.00035 | 1.35614 ± 0.00035 | 1.35413 ± 0.00035 | 1.35215 ± 0.00035 | 1236.82 ± 0.23 | 1230.2 ± 0.23 | 1223.61 ± 0.23 | 1217.06 ± 0.23 | 1210.43 ± 0.23 | C[Si]1(CCC(F)(F)F)O[Si](C)(CCC(F)(F)F)O[Si](C)(CCC(F)(F)F)O1 (stereo not given) + C[Si](C)(O[Si](C)(C)c1ccccc1)c1ccccc1 |
|  |  |  |  |  |  |  |  |  |  | 1.42751 ± 0.00035 | 1.42514 ± 0.00035 | 1.42275 ± 0.00035 | 1.4204 ± 0.0004 | 1.41802 ± 0.00035 | 972.64 ± 0.21 | 967.49 ± 0.21 | 962.36 ± 0.21 | 957.2 ± 0.21 | 952.03 ± 0.21 | C=C[Si]1(C)O[Si](C)(C=C)O[Si](C)(C=C)O[Si](C)(C=C)O1 (stereo not given) [2,4,6,8-tetramethyl-2,4,6,8-tetravinylcycloterasiloxane] + C[Si](C)(O[Si](C)(C)c1ccccc1)c1ccccc1 |
